IC50 data for 45 molecules are collected here from US10221186B2, “Spirocyclic heterocyclic compounds useful as HIV integrase inhibitors” (priority 2014, dated 2019).

Where two headings read alike, the source gives them in different places.

In the assay the test system is HIV-1 (NL4-3 strain). Nature of the assay: Assay for inhibition of HIV replication (VIKING) in infected MT4-GFP cells. In kind it is cell-based. Particulars: infected cells at 48 h / 24 h. As to the method:
MT4-GFP cells (250,000 cells/ml) were bulk-infected with HIV-1 (NL4-3 strain) at low multiplicity of infection (MOI) in RPMI+10% FBS for 24 hours. […] Test compounds were serial-diluted in DMSO on ECHO. The infected MT4-GFP cells were added to a 384-well poly-D-lysine coated black plate with clear bottom in which the diluted test compounds were placed. The cells were seeded at 8,000 cells per well and the final DMSO concentration was 0.4%. The infected cells (Green GFP cells) were quantified at both 24 and 48 hours post incubation using Acumen eX3. Viral reproductive ratio (R0) was determined using the number of infected cells at 48 hours divided by the number of infected cells at 24 hours. Percent viral growth inhibition was calculated by [1−(R−Rtripledrug)/(RDMSO−Rtripledrug)]*100.

Setting [1] is: Human immunodeficiency virus 1, NL43, MT4-GFP cells infected with HIV-1 NL4-3, 0% NHS (normal human serum), read-out: VIKING IP50 (nM) with 0% NHS.
[2] abbreviates: MT4-GFP cells infected with HIV-1 NL4-3, 100% NHS (normal human serum), read-out: VIKING IP50 (nM) with 100% NHS.
Where [3] appears, read: MT4-GFP cells infected with HIV-1 NL4-3, 0% NHS (normal human serum), read-out: VIKING IP50 (nM) with 0% NHS.
Setting [4] is: Human immunodeficiency virus 1, NL43, MT4-GFP cells infected with HIV-1 NL4-3, 100% NHS (normal human serum), read-out: VIKING IP50 (nM) with 100% NHS.

Consider `COCCN1CC2(CCCOC2)n2cc(C(=O)NCc3ccc(F)cc3F)c(=O)c(O)c2C1=O` (single isomer, unassigned) [Compound 8], for which the IC50 by setting is: under setting [1], 2 nM; under setting [2], 260 nM.

Take `COCCN1CC2(CCCOC2)n2cc(C(=O)NCc3ccc(F)cc3F)c(=O)c(O)c2C1=O` (single isomer, unassigned) [Compound 9]: the IC50 turned out to be 2 nM under setting [3] and 814 nM under setting [2].

Turning to `COCCCN1CC2(CCOC2)n2cc(C(=O)NCc3ccc(F)cc3F)c(=O)c(O)c2C1=O` (single isomer, unassigned) [Compound 12], the IC50 runs as follows: under setting [4], 47 nM; under setting [3], 5 nM.

As to `COCCCN1CC2(CCOC2)n2cc(C(=O)NCc3ccc(F)cc3F)c(=O)c(O)c2C1=O` (single isomer, unassigned) [Compound 13], the IC50 is, setting by setting: under setting [3], 2 nM; under setting [2], 36 nM.

With `CCN1C(=O)c2c(O)c(=O)c(C(=O)NCc3ccc(F)cc3F)cn2C2(COC2)C1OC` (single isomer, unassigned) [Compound 33], the IC50 runs as follows: under setting [1], 3 nM; under setting [2], 210 nM.

As for `CCN1C(=O)c2c(O)c(=O)c(C(=O)NCc3ccc(F)cc3F)cn2C2(COC2)C1OC` (single isomer, unassigned) [Compound 34], the IC50 is, setting by setting: under setting [3], 5 nM; under setting [2], 4920 nM.

For `CCN1C(=O)c2c(O)c(=O)c(C(=O)NCc3ccc(F)cc3F)cn2C2(CCOC2)C1OC` (single isomer, unassigned) [Compound 35], the IC50 under setting [3] turned out to be 1 nM and the IC50 under setting [2] was 88 nM.

Turning to `CCN1C(=O)c2c(O)c(=O)c(C(=O)NCc3ccc(F)cc3F)cn2C2(CCOC2)C1OC` (single isomer, unassigned) [Compound 36], the IC50 under setting [3] is 3 nM and the IC50 under setting [2] amounted to 114 nM.

With `CCN1C(=O)c2c(O)c(=O)c(C(=O)NCc3ccc(F)cc3F)cn2C2(CCOC2)C1OC` (single isomer, unassigned) [Compound 37], the IC50 reads like this: under setting [3], 3 nM; under setting [2], 663 nM.

As for `CC(=O)N1CCC2(CN(C)C(=O)c3c(O)c(=O)c(C(=O)NCc4ccc(F)cc4F)cn32)C1` (single isomer, unassigned) [Compound 45], the IC50 by setting is: under setting [4], 297 nM; under setting [3], 69 nM.

Consider `CC(=O)N1CCC2(CN(C)C(=O)c3c(O)c(=O)c(C(=O)NCc4ccc(F)cc4F)cn32)C1` (single isomer, unassigned) [Compound 46], for which the IC50 turned out to be 19 nM under setting [3] and 259 nM under setting [2].

On to `CN1CC2(CCN(S(C)(=O)=O)C2)n2cc(C(=O)NCc3ccc(F)cc3F)c(=O)c(O)c2C1=O` (single isomer, unassigned) [Compound 47], for which the IC50 reads like this: under setting [1], 6 nM; under setting [4], 78 nM.

On to `CN1CC2(CCN(S(C)(=O)=O)C2)n2cc(C(=O)NCc3ccc(F)cc3F)c(=O)c(O)c2C1=O` (single isomer, unassigned) [Compound 48], for which the IC50 by setting is: under setting [3], 10 nM; under setting [2], 112 nM.

Turning to `CN1CCC2(C1)CN(C)C(=O)c1c(O)c(=O)c(C(=O)NCc3ccc(F)cc3F)cn12` (single isomer, unassigned) [Compound 49], the IC50 under setting [1] amounted to 2 nM and the IC50 under setting [4] came out at 90 nM.

Turning to `CN1CCC2(C1)CN(C)C(=O)c1c(O)c(=O)c(C(=O)NCc3ccc(F)cc3F)cn12` (single isomer, unassigned) [Compound 50], the IC50 is, setting by setting: under setting [3], 1 nM; under setting [2], 74 nM.

Turning to `CN1CC2(CCNC2)n2cc(C(=O)NCc3ccc(F)cc3F)c(=O)c(O)c2C1=O` (single isomer, unassigned) [Compound 51], the IC50 was determined as 3 nM under setting [3] and 68 nM under setting [2].

Consider `CN1CC2(CCNC2)n2cc(C(=O)NCc3ccc(F)cc3F)c(=O)c(O)c2C1=O` (single isomer, unassigned) [Compound 52], for which the IC50 under setting [3] worked out at 18 nM and the IC50 under setting [2] was 210 nM.

Take `CC(C)OC(=O)OCOP(=O)(CCN1C[C@@]2(CCOC2)n2cc(C(=O)NCc3ccc(F)cc3F)c(=O)c(O)c2C1=O)OCOC(=O)OC(C)C` (single isomer, unassigned) [Compound 54]: the IC50 amounted to 5 nM under setting [1] and 1600 nM under setting [4].

With `CC(C)OC(=O)OCOP(=O)(CCN1C[C@]2(CCOC2)n2cc(C(=O)NCc3ccc(F)cc3F)c(=O)c(O)c2C1=O)OCOC(=O)OC(C)C` (single isomer, unassigned) [Compound 58], the IC50 is 7 nM under setting [1] and 530 nM under setting [4].

Regarding `CN(C)N1CC2(COC2)n2cc(C(=O)NCc3ccc(F)cc3F)c(=O)c(O)c2C1=O` [Compound 1], the IC50 amounted to 4 nM under setting [1] and 1280 nM under setting [4].

Turning to `CN(C)N1CC2(CCOCC2)n2cc(C(=O)NCc3ccc(F)cc3F)c(=O)c(O)c2C1=O` [Compound 2], the IC50 reads like this: under setting [1], 19 nM; under setting [4], 1510 nM.

With `COCCN1CC2(COC2)n2cc(C(=O)NCc3ccc(F)cc3F)c(=O)c(O)c2C1=O` [Compound 3], the IC50 is, setting by setting: under setting [1], 3 nM; under setting [4], 292 nM.

For the molecule `CN1CC2(COC2)n2cc(C(=O)NCc3ccc(F)cc3F)c(=O)c(O)c2C1=O` [Compound 4], the IC50 is 2 nM under setting [1] and 334 nM under setting [4].

For the molecule `CCN1CC2(COC2)n2cc(C(=O)NCc3ccc(F)cc3F)c(=O)c(O)c2C1=O` [Compound 5], the IC50 is 4 nM under setting [1] and above 8400 nM under setting [4].

For the molecule `COCCN1CC2(CCOCC2)n2cc(C(=O)NCc3ccc(F)cc3F)c(=O)c(O)c2C1=O` [Compound 6], the IC50 is 6 nM under setting [1] and 646 nM under setting [4].

Take `CN1CC2(CCOCC2)n2cc(C(=O)NCc3ccc(F)cc3F)c(=O)c(O)c2C1=O` [Compound 7]: the IC50 is, setting by setting: under setting [1], 6 nM; under setting [4], 113 nM.

Regarding `CN1CC2(CCCOC2)n2cc(C(=O)NCc3ccc(F)cc3F)c(=O)c(O)c2C1=O` (stereo not drawn) [Compound 10], the IC50 under setting [1] stood at 3 nM and the IC50 under setting [2] stood at 75 nM.

Turning to `CN1CC2(CCCOC2)n2cc(C(=O)NCc3ccc(F)cc3F)c(=O)c(O)c2C1=O` (stereo not drawn) [Compound 11], the IC50 is 3 nM under setting [3] and 442 nM under setting [2].

Regarding `CN1CC2(CCOC2)n2cc(C(=O)NCc3ccc(F)cc3F)c(=O)c(O)c2C1=O` (stereo not drawn) [Compound 14], the IC50 is, setting by setting: under setting [1], 3 nM; under setting [4], 209 nM.

As for `CN1CC2(CCOC2)n2cc(C(=O)NCc3ccc(F)cc3F)c(=O)c(O)c2C1=O` (stereo not drawn) [Compound 15], the IC50 by setting is: under setting [3], 4 nM; under setting [2], 108 nM.

With `CCN1CC2(CCOC2)n2cc(C(=O)NCc3ccc(F)cc3F)c(=O)c(O)c2C1=O` (stereo not drawn) [Compound 16], the IC50 by setting is: under setting [1], 2 nM; under setting [4], 4530 nM.

For the molecule `CCN1CC2(CCOC2)n2cc(C(=O)NCc3ccc(F)cc3F)c(=O)c(O)c2C1=O` (stereo not drawn) [Compound 17], the IC50 is 2 nM under setting [3] and above 8400 nM under setting [2].

Turning to `COCN1CC2(CCOC2)n2cc(C(=O)NCc3ccc(F)cc3F)c(=O)c(O)c2C1=O` (stereo not drawn) [Compound 18], the IC50 by setting is: under setting [1], 3 nM; under setting [2], above 8400 nM.

Take `COCN1CC2(CCOC2)n2cc(C(=O)NCc3ccc(F)cc3F)c(=O)c(O)c2C1=O` (stereo not drawn) [Compound 19]: the IC50 reads like this: under setting [3], 2 nM; under setting [2], 3420 nM.

Regarding `COCCN1CC2(CCOC2)n2cc(C(=O)NCc3ccc(F)cc3F)c(=O)c(O)c2C1=O` (stereo not drawn) [Compound 20], the IC50 is, setting by setting: under setting [1], 2 nM; under setting [2], 337 nM.

Turning to `COCCN1CC2(CCOC2)n2cc(C(=O)NCc3ccc(F)cc3F)c(=O)c(O)c2C1=O` (stereo not drawn) [Compound 21], the IC50 is 3 nM under setting [3] and 129 nM under setting [2].

With `CCOCCN1CC2(CCOC2)n2cc(C(=O)NCc3ccc(F)cc3F)c(=O)c(O)c2C1=O` (stereo not drawn) [Compound 22], the IC50 under setting [1] was 2 nM and the IC50 under setting [4] stood at 40 nM.

Regarding `CCOCCN1CC2(CCOC2)n2cc(C(=O)NCc3ccc(F)cc3F)c(=O)c(O)c2C1=O` (stereo not drawn) [Compound 23], the IC50 stood at 1 nM under setting [3] and 27 nM under setting [2].

For the molecule `O=C(NCc1ccc(F)cc1F)c1cn2c(c(O)c1=O)C(=O)N(CCO)CC21CCOC1` (stereo not drawn) [Compound 24], the IC50 under setting [1] is 35 nM and the IC50 under setting [4] is above 8000 nM.

In the case of `COCCN1CC2(CCOC2)n2cc(C(=O)NCc3ccc(F)c(Cl)c3F)c(=O)c(O)c2C1=O` (stereo not drawn) [Compound 25], the IC50 under setting [1] is 1 nM and the IC50 under setting [4] came to 1730 nM.

Take `COCCN1CC2(CCOC2)n2cc(C(=O)NCc3ccc(F)c(Cl)c3F)c(=O)c(O)c2C1=O` (stereo not drawn) [Compound 26]: the IC50 under setting [3] worked out at 1 nM and the IC50 under setting [2] was found to be 1140 nM.

As to `COCCN1CC2(CCOC2)n2cc(C(=O)NCc3ccc(F)c(Cl)c3)c(=O)c(O)c2C1=O` (stereo not drawn) [Compound 27], the IC50 amounted to 3 nM under setting [1] and 3660 nM under setting [4].

Regarding `COCCN1CC2(CCOC2)n2cc(C(=O)NCc3ccc(F)c(Cl)c3)c(=O)c(O)c2C1=O` (stereo not drawn) [Compound 28], the IC50 under setting [3] was 2 nM and the IC50 under setting [2] was found to be 2770 nM.

`COCCN1CC2(CCOC2)n2cc(C(=O)NCc3cccc(Cl)c3F)c(=O)c(O)c2C1=O` (stereo not drawn) [Compound 29]: the IC50 runs as follows: under setting [1], 1 nM; under setting [2], 1140 nM.

For `COCCN1CC2(CCOC2)n2cc(C(=O)NCc3cccc(Cl)c3F)c(=O)c(O)c2C1=O` (stereo not drawn) [Compound 30], the IC50 reads like this: under setting [3], 1 nM; under setting [2], 417 nM.
